Literature values as cited in patent publication US20170313932A1, “SYNTHETIC ACID COMPOSITIONS ALTERNATIVES TO CONVENTIONAL ACIDS IN THE OIL AND GAS INDUSTRY” (FLUID ENERGY GROUP LTD., priority 2014, published 2017).

Test system: Life and Health

## Cl [Hydrogen chloride gas, Hydrogen chloride]
  Level Immediately Dangerous to Life and Health (IDHL): above 50 PPM
Gas exposure, death in 2-3 minutes
  Level at which death can occur: 1300-2000 parts per million (PPM)
